Twelve compounds from US9511058B2, “Methods for using carboxamide, sulfonamide and amine compounds” (Rigel Pharmaceuticals, Inc., priority 2010, dated 2016) can be followed below.

The assay addresses AMPK. The experiment in a line: AMPK activation, enzyme-linked immunosorbent assay. The format is biochemical. How it is done:
Compounds of Table 1 were assayed for their ability to activate AMPK using an enzyme-linked immunosorbent assay.
Compounds of Table 2 were assayed for their ability to activate AMPK using an enzyme-linked immunosorbent assay.
Compounds of Table 3 were assayed for their ability to activate AMPK using an enzyme-linked immunosorbent assay.
Compounds of Table 4 were assayed for their ability to activate AMPK using an enzyme-linked immunosorbent assay.
Compounds of Table 5 were assayed for their ability to activate AMPK using an enzyme-linked immunosorbent assay.

Where [1] appears, read: compounds of Table 5 (Table 10).

Some results are limits rather than exact numbers.

Regarding `O=C(c1ccc(OC2CCN(Cc3ccccc3)CC2)cc1)N1CCN(Cc2ccccn2)CC1` [5-105, (4-(1-benzylpiperidin-4-yloxy)phenyl)(4-(pyridin-2-ylmethyl)piperazin-1-yl)methanone], the EC50 (usually the concentration that produces a half-maximal response) under setting [1] was in the range of 10000 to 20000 nM.

`Cn1cnc(CN2CCC(NC(=O)c3ccc4[nH]c5c(c4c3)CN(Cc3ccc(C(F)(F)F)cc3)CC5)CC2)c1` [2-53, N-(1-((1-methyl-1H-imidazol-4-yl)methyl)piperidin-4-yl)-2-(4-(trifluoromethyl)benzyl)-2,3,4,5-tetrahydro-1H-pyrido [4,3-b]indole-8-carboxamide] gave a 50% effective concentration (EC50) (compounds of Table 2 (Table 7)) of 10000 to 50000 nM. On to `N#Cc1ccc(CN2CC[C@H](NC(=O)c3ccc(C(=O)N4CCN(c5ccc(Cl)cc5)CC4)cn3)C2)cc1` [4-6, (S)-5-(4-(4-chlorophenyl)piperazine-1-carbonyl)-N-(1-(4-cyanobenzyl)pyrrolidin-3-yl)picolinamide], for which the EC50 (compounds of Table 4 (Table 9)) was in the range of 500 to 1000 nM.

The compound `N#Cc1ccc(CN2CCC(NC(=O)c3ccc4[nH]c5c(c4c3)CN(S(=O)(=O)c3ccc(C#N)cc3)CC5)CC2)cc1` [2-25, N-(1-(4-cyanobenzyl)piperidin-4-yl)-2-(4-cyanophenylsulfonyl)-2,3,4,5-tetrahydro-1H-pyrido[4,3-b] indole-8-carboxamide] returned an EC50 (compounds of Table 2 (Table 7)) of 10000 to 50000 nM. The compound `CC(C)(C)OC(=O)N1CCC(NC(=O)c2cc3ccc(OC4CCN(c5ccc(C(F)(F)F)cc5)CC4)cc3s2)CC1` [1-140, tert-butyl 4-(6-(1-(4-(trifluoromethyl)phenyl)piperidin-4-yloxy)benzo[b]thiophene-2-carboxamido)piperidine-1-carboxylate] returned an EC50 (compounds of Table 1 (Table 6)) of 500 to 1000 nM.

Turning to `O=C(NC1CCN(Cc2ccncc2)CC1)c1cnc(OC2CCN(c3ccc(C(F)(F)F)cc3)CC2)cn1` [3-21, N-(1-(pyridin-4-ylmethyl)piperidin-4-yl)-5-(1-(4-(trifluoromethyl)phenyl)piperidin-4-yloxy)pyrazine-2-carboxamide], the EC50 (compounds of Table 3 (Table 8)) is < 100 nM.

Take `O=C(NC1CCN(Cc2ccc(Cl)cc2)CC1)c1ccc(OC2CCN(Cc3ccc(Cl)cc3)CC2)c(F)c1` [5-72, N-(1-(4-chlorobenzyl)piperidin-4-yl)-4-(1-(4-chlorobenzyl)piperidin-4-yloxy)-3-fluorobenzamide]: under setting [1], the EC50 was < 1000 nM. Consider `NC(=O)c1ccc(CN2CCC(NC(=O)c3ccc4[nH]c5c(c4c3)CN(Cc3ccc(C(N)=O)cc3)CC5)CC2)cc1` [2-49, 2-(4-carbamoylbenzyl)-N-(1-(4-carbamoylbenzyl)piperidin-4-yl)-2,3,4,5-tetrahydro-1H-pyrido [4,3-b]indole-8-carboxamide], for which the concentration for a half-maximal effect (EC50) (compounds of Table 2 (Table 7)) is > 100000 nM. The same measure, in the same setting: then `CC(=O)n1c2c(c3cc(C(=O)NC4CCN(Cc5cccnc5)CC4)ccc31)CN(Cc1ccc(C(F)(F)F)cc1)CC2` [2-20, 5-acetyl-N-(1-(pyridin-3-ylmethyl)piperidin-4-yl)-2-(4-(trifluoromethyl)benzyl)-2,3,4,5-tetrahydro-1H-pyrido[4,3-b]indole-8-carboxamide], with 1000 to 5000 nM. For the compound `Cc1ccc(CN2CCC(Oc3ccc(C(=O)NC4CCN(Cc5ccc(F)cc5)CC4)cc3Cl)CC2)cc1` [5-68, 3-chloro-N-(1-(4-fluorobenzyl)piperidin-4-yl)-4-(1-(4-methylbenzyl)piperidin-4-yloxy)benzamide], the EC50 under setting [1] was < 1000 nM. The compound `O=C(N[C@H]1CCN(Cc2ccc(Cl)cc2)C1)c1ccc(C(=O)N2CCN(c3ccc(Cl)cc3)CC2)cn1` [4-7, N-(1-(4-chlorobenzyl)pyrrolidin-3-yl)-5-(4-(4-chlorophenyl)piperazine-1-carbonyl)picolinamide] showed an EC50 (compounds of Table 4 (Table 9)) of 1000 to 5000 nM.

With `N#Cc1ccc(CN2CC3CC2CN3C(=O)c2nc3ccc(OC4CCN(c5ccc(C(F)(F)F)cc5)CC4)cc3o2)cc1` (stereo not drawn) [3-10, 4-((5-(6-(1-(4-(trifluoromethyl)phenyl)piperidin-4-yloxy)benzo[d]oxazole-2-carbonyl)-2,5-diazabicyclo[2.2.1]heptan-2-yl)methyl)benzonitrile], the EC50 (compounds of Table 3 (Table 8)) fell in the range of 100 to 1000 nM.
